Laboratory results as given in BindingDB's records for doi:10.1111/j.1747-0285.2006.00365.x (Johnson & Johnson Pharmaceutical Research & Development, 2006).
pIC50: −log10 of the molar value.

Biological target: p53 binding protein (Homo sapiens, UniProt Q9H4C2)
Assay: HDM2 Binding Assay
From the text: Binding assay using 1,4-benzodiazepine-2,5-dione (BZD) scaffold and HDM2-p53 protein.

p53 binding protein, sequence (Q9H4C2 whole entry): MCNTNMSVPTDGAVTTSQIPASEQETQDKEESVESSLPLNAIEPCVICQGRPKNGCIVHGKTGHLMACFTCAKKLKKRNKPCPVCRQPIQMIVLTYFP

SMILES	pIC50
CC(C)c1ccc2c(c1)C(=O)N(C(C(=O)O)c1ccc(Cl)cc1)C(c1ccc(Cl)cc1)C(=O)N2 (stereo not given) [BZD Scaffold, 2]	6.00
O=C(O)C(c1ccccc1)N1C(=O)c2cc(I)ccc2NC(=O)C1c1ccc(C(F)(F)F)cc1 (stereo not given) [BZD Scaffold, 4]	5.42
O=C(O)C(c1ccccc1)N1C(=O)c2cc(I)ccc2NC(=O)C1c1ccc(Cl)cc1 (stereo not given) [BZD Scaffold, 5]	5.77

The next lines start with the values.

pIC50	SMILES
< 3.90	O=C(O)C(c1ccccc1)N1C(=O)c2ccccc2NC(=O)C1c1ccccc1 (stereo not given) [BZD Scaffold, 1]
4.54	O=C(O)C(c1ccccc1)N1C(=O)c2cc(I)ccc2NC(=O)C1c1ccccc1 (stereo not given) [BZD Scaffold, 3]
